Reference: patent US12268727B2, “Bioactive polypeptides for improvements in plant protection, growth and productivity” (priority 2017, dated 2025)
Non-standard residues stand in square brackets, D forms with d. No end group written: not given here. sY = N[C@@H](Cc1ccc(OS(=O)(=O)O)cc1)C(=O)O

Experiments:
[1] = system: Agrobacterium tumefaciens strain GV3101; assay: Growth of Agrobacterium tumefaciens culture (OD 600); format: cell-based; details: 10.0%, 2.0%, 0.40%, 0.08%, 0.02%
Experimental: Agrobacterium tumefaciens strain GV3101 was inoculated into Luria broth medium (LB) and grown for 20 hours. Initially the optical density (OD) of the culture was measured at a wavelength of 600 nm using a spectrophotometer and normalized to a low starting density. The cultures were then divided equally and treated with similar proportions of thionins that are representative of mixtures used to treat citrus trees. The ratios of Cs.thionin (SEQ ID NO: 651), As.thionin (SEQ ID NO: 652) and Mt.thionin (SEQ ID NO: 653) used were 10.0%, 2.0%, 0.40%, 0.08%, and 0.02% and were prepared to match the 20 mL total volume of filtrate of each of the thionin mixtures that is used as a treatment per tree. Each thionin mixture was also compared to control mixtures containing only: filtrate, minimal media (LB), or a tetracycline (Tet) antibiotic (10 μg/mL per culture). Each bar represents a combined OD measure of 3 replicates. After incubation with the thionin and antibiotic mixtures, the optical density (OD 600) was measured again to determine if growth of the Agrobacterium cultures was reduced or inhibited.

soybean [2] = assay: Foliar application to soybean, field yield trials; format: in vivo; details: for Average Bu/Ac Increase compared to Control Variety 1 and 2 / Average Total Yield Bu/Ac Variety 1 and 2 / Average Total Yield Bu/Ac Variety 2: foliar at R2, 7 US Midwest locations; for Average Total Yield Bu/Ac Variety 2: AG3536
soybean [3] = assay: Foliar application to soybean, field yield trials; format: in vivo; details: foliar at R2, AG2836, 7 US Midwest locations
[4] = system: reactive oxygen species (ROS) production in soybean leaf tissue; assay: ROS activity assay in soybean leaf tissue (luminol/horseradish peroxidase, RLU); format: cell-based; details: Table 33; 100 nM polypeptide; RLU relative to native Bt.4Q7Flg22 = 100
[5] = system: reactive oxygen species (ROS) production in Kiwi 'Hayward' leaf petioles; assay: ROS activity assay in kiwi leaf petioles; format: cell-based, Actinidiae deliciosa; details: 100 nM peptide
Experimental: To test the sensitivity of kiwi leaves to 22-amino acid fragments of flagellin, 1 mm slices were cut through Actinidiae deliciosa Kiwi ‘Hayward’ leaf petioles and floated in 150 μL of water in a 96-well plate, with one slice per well. […] In two independent experiments, a total of 6 kiwi leaf petiole samples were treated with each Flg22 polypeptide in Table 94. The average total RLU and standard error of the means (SEM) was calculated for each treatment. A two-tailed T-test was used to determine significance at the 90% confidence level (P<0.1) between treatments. Relative ROS production was determined for each polypeptide in comparison to total RLUs for the 100 nM Bt.4Q7Flg22 control.

[6] = system: Pseudomonas syringae pv. actinidiae (PSA-V); assay: PSA-V leaf spot in potted kiwi plants; format: in vivo
[7] = system: reactive oxygen species (ROS) production in corn tissue; assay: ROS activity assay in corn tissue (luminol/horseradish peroxidase, RLU); details: Table 33; 5 nM polypeptide; RLU relative to native Bt.4Q7Flg22 = 100
corn [8] = format: in vivo
soybean [9] = assay: Foliar application to soybean in growth room, plant height (non-stress, heat and water deficit stress); format: in vivo
Experimental: Ec.Flg22 (SEQ ID NO: 527) was applied to soybean (Beck's 297NR).
Plant height (cm) was measured just prior to the foliar application delivered at 3 weeks and then again 2 weeks later when the plants were 5-weeks-old. Two replicate trials were conducted using 18 plants per trial.
Soybean plants were grown as described in Example 6. The At.PSKα polypeptide (SEQ ID NO: 598) was applied as a foliar spray to the plants at the V1-V4 stage. Soybean plants treated with foliar applications of At.PSKα and control plants treated with water and surfactant alone were then grown in conditions described in Examples 7-9 that produced a non-stress and stress (heat and water deficit) environments. Table 37 describes the percentage change or increase in height reported for soybean plants treated with At.PSKα as a foliar spray at the V1-V4 growth stage.
RHPP bioactive priming polypeptide (SEQ ID NO: 600) was also applied as foliar treatment to R1 stage hybrid soybean (Beck's 297R4) with 0.1% (v/v) non-ionic surfactant ([…] SURFACE) using a spray bottle delivering approximately 1.2 ml/plant. This experiment was performed to look at the effects of RHPP on plant growth and was conducted using a total of 18 plants per treatment group. […] R1 stage soybean plants were treated with nothing (non-treated control), […] SURFACE surfactant applied at a concentration of 0.1% (v/v) or the RHPP polypeptide (300 nM) applied in combination with […] SURFACE surfactant (0.1% v/v). Height for each plant was recorded at the time of spray and again at 16 days post foliar application and average growth parameters were compared between foliar treatments (Table 39).

corn [10] = assay: Foliar application to corn in growth room, plant height (non-stress, heat and water deficit stress)
[11] = system: Candidatus Liberibacter asiaticus; details: in vivo

Cs.thionin: thionin polypeptide, applied as filtrate (RVCQSQSHHFHGACFSHHNCAFVCRNEGFSGGKCRGVRRRCFCSKLC; applied as filtrate; listed as Citrus sinensis)
growth of Agrobacterium cultures vs filtrate, LB or Tet controls [1]: dose dependent response and decreased growth

Gm RHPP (GGIRAAPTGNER; Glycine max)
Average Bu/Ac Increase compared to Control Variety 1 and 2 (soybean [2]; use rate 4.0 Fl. oz/Ac): +1.26 Bu/Ac | Average Total Yield Bu/Ac Variety 1 and 2 (soybean [2]; use rate 4.0 Fl. oz/Ac): 61.83 Bu/Ac | Average Bu/Ac Increase compared to Control Variety 1 and 2 (soybean [2]; use rate 8.0 Fl. oz/Ac): +0.51 Bu/Ac | Average Total Yield Bu/Ac Variety 1 and 2 (soybean [2]; use rate 8.0 Fl. oz/Ac): 61.08 Bu/Ac | Average Total Yield Bu/Ac Variety 2 (soybean [2]; use rate 4.0 Fl. oz/Ac): 66.35 Bu/Ac | Average Total Yield Bu/Ac Variety 2 (soybean [2]; use rate 8.0 Fl. oz/Ac): 62.46 Bu/Ac | Average Total Yield Bu/Ac Variety 1 (soybean [3]; use rate 4.0 Fl. oz/Ac): 58.61 Bu/Ac | Average Total Yield Bu/Ac Variety 1 (soybean [3]; use rate 8.0 Fl. oz/Ac): 59.47 Bu/Ac

Mt.thionin: thionin polypeptide, applied as filtrate (RTCESQSHRFKGPCSRDSNCATVCLTEGFSGGDCRGFRRRCRCTRPCVFDEK; applied as filtrate)
growth of Agrobacterium cultures vs filtrate, LB or Tet controls [1]: dose dependent response and decreased growth

TRLSSGLKINSAKDDAAGLQIA (listed as Pseudomonas syringae) [Flg22-PSA]
Avg. Activity (%) Soybean (297 R4) 100 nM polypeptide [4]: 113.1% | Average Total Relative Light Units (RLUs); SEM in parentheses ([5]; Kiwi 'Hayward' leaf petiole slices, 40 minutes time course): 124,550 RLU | ROS production relative to Bt4Q7Flg22 (%) ([5]; Kiwi 'Hayward' leaf petioles): 262% | PSA-V leaf spot symptoms vs untreated control ([6]; 6, 16 and 23 DAI): significantly reduced PSA-V leaf spot symptoms | less leaf spot compared to untreated control ([6]; combination with Flg22-PSA pre-treatment (partner not given), 29 DAI): 14.3% | Avg. Activity (%) Corn (5828 YX) 5 nM polypeptide [7]: 154.4%

Tyr(SO3H)-I-Tyr(SO3H)-TQ ([sY]I[sY]TQ; listed as Arabidopsis thaliana) [At.PSKα]
Bu/Ac Foliar Corn (yield increase) (corn [8]; 1 μM foliar spray with surfactant at V5-V8, corn hybrid 5140RR, vs water control): 3.0 Bu/Ac | yield increase (corn [8]; foliar 1 μM, V5-V8, hybrid 5140RR, one location): 3 Bu/Ac | Bu/Ac Foliar Soybean (yield increase) (soybean [2]; 1 μM foliar spray with surfactant at V1-V4, soybean hybrid 375 NR, vs water control): 0.8 Bu/Ac | yield increase (soybean [2]; foliar 1 μM, V1-V4, hybrid 375 NR, one location): 0.8 Bu/Ac | increase in height vs control (soybean [9]; foliar at V1-V4, non-stress environment): 3.5% | increase in height vs control (soybean [9]; foliar at V1-V4, stress (heat and water deficit) environment): 4.3% | Percentage (%) change in Height in Stress Environment Soybean with At.PSKα over control (soybean [9]; foliar spray at V1-V4, heat and water deficit stress): 4.3% | Percentage (%) change in Height in Non-Stress Environment Soybean with At.PSKα over control (soybean [9]; foliar spray at V1-V4, non-stress): 3.5% | Plant Height Normalized as a percentage of control height Non-stress (corn [10]; 5 weeks, control surfactant 0.01% v/v, HpaG-like 1 μM, At.PSKα 100 nM): 98.2% | Plant Height Normalized as a percentage of control height Stress (corn [10]; 5 weeks, heat and water deficit stress, control surfactant 0.01% v/v, HpaG-like 1 μM, At.PSKα 100 nM): 107.8% | growth phenotype vs control (corn [10]; foliar (HpaG-like 1 μM, PSKα), heat and water deficit stress): improved growth phenotype | Height (cm) after stress 5 weeks (corn [10]; heat and water deficit stress, HpaG-like 1 μM, At.PSKα 100 nM foliar): 54.88 cm | Height (cm) after non-stress 5 weeks (corn [10]; non-stress growth room, HpaG-like 1 μM, At.PSKα 100 nM foliar): 58.62 cm

thionin tagged: thionin polypeptide comprising a phloem localization sequence (printed SEQ ID NO: 650) (RTCESQSHRFKGPCSRDSNCATVCLTEGFSGGDCRGFRRRCRCTRPCVFDEK)
Ct values vs control trees [11]: higher average Ct values | average Ct value vs un-tagged thionin [11]: higher average Ct value at T56
